The source made the active and inactive calls. How the calls were made is not given here.
Test system: rodent carcinogenicity bioassays, tumor incidence
Assay: CCRIS carcinogenicity studies
Method in brief: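 NCI-built, expert-reviewed records of carcinogenicity and related test outcomes (mutagenicity, tumor promotion/inhibition) compiled from published and report sources, historical span 1985-2011, not updated.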

Measured: carcinogen call

CC(C)n1c(/C=C/[C@H](O)C[C@H](O)CC(=O)O)c(-c2ccc(F)cc2)c2ccccc21
inactive: Species: MOUSE, Strain/Sex: CD-1/FEMALE (80/GROUP), Route: ORAL (GAVAGE), Dose: 0, 50, 150, 350 MG/KG/D IN 1% CARBOXYMETHYLCELLULOSE FOR 93 WK, Dose: 0, 50, 150, 350 MG/KG/D IN 1% CARBOXYMETHYLCELLULOSE FOR 93 WK inactive; negative | Species: MOUSE, Strain/Sex: CD-1/FEMALE, Route: GAVAGE, Dose: 0, 50, 150, 350 MG/KG/D FOR 52 OR 84 WK (HIGH DOSE GROUP TERMINATED IN WK 23) (STUDY DURATION: 93 WK), Dose: 0, 50, 150, 350 MG/KG/D FOR 52 OR 84 WK (HIGH DOSE GROUP TERMINATED IN WK 23) (STUDY DURATION: 93 WK) inactive; negative | Species: MOUSE, Strain/Sex: CD-1/MALE (70/GROUP), Route: ORAL (GAVAGE), Dose: 0, 0.3, 15, 30 MG/KG/D IN 1% CARBOXYMETHYLCELLULOSE FOR 85 WK, Dose: 0, 0.3, 15, 30 MG/KG/D IN 1% CARBOXYMETHYLCELLULOSE FOR 85 WK inactive; negative | Species: MOUSE, Strain/Sex: CD-1/MALE (80/GROUP), Route: ORAL (GAVAGE), Dose: 0, 50, 150, 350 MG/KG/D IN 1% CARBOXYMETHYLCELLULOSE FOR 84 WK, Dose: 0, 50, 150, 350 MG/KG/D IN 1% CARBOXYMETHYLCELLULOSE FOR 84 WK inactive; negative | Species: MOUSE, Strain/Sex: CD-1/MALE, Route: GAVAGE, Dose: 0, 0.3, 15, 30 MG/KG/D FOR 52 OR 85 WK (STUDY DURATION: 86 WK), Dose: 0, 0.3, 15, 30 MG/KG/D FOR 52 OR 85 WK (STUDY DURATION: 86 WK) inactive; negative | Species: MOUSE, Strain/Sex: CD-1/MALE, Route: GAVAGE, Dose: 0, 50, 150, 350 MG/KG/D FOR 52 OR 84 WK (HIGH DOSE GROUP TERMINATED IN WK 23) (STUDY DURATION: 84 WK), Dose: 0, 50, 150, 350 MG/KG/D FOR 52 OR 84 WK (HIGH DOSE GROUP TERMINATED IN WK 23) (STUDY DURATION: 84 WK) inactive; negative | Species: RAT, Strain/Sex: CD (SPRAGUE-DAWLEY)/FEMALE (75/GROUP), Route: ORAL (GAVAGE), Dose: 0, 0.03, 0.3, 3 MG/KG/D IN 1% CARBOXYMETHYLCELLULOSE FOR 101 WKS, Dose: 0, 0.03, 0.3, 3 MG/KG/D IN 1% CARBOXYMETHYLCELLULOSE FOR 101 WKS inactive; negative | Species: RAT, Strain/Sex: CD (SPRAGUE-DAWLEY)/FEMALE (75/GROUP), Route: ORAL (GAVAGE), Dose: 0, 6, 9, 18-24 MG/KG/D IN 1% CARBOXYMETHYLCELLULOSE FOR 104 WKS, Dose: 0, 6, 9, 18-24 MG/KG/D IN 1% CARBOXYMETHYLCELLULOSE FOR 104 WKS inactive; negative | Species: RAT, Strain/Sex: CD (SPRAGUE-DAWLEY)/MALE (75/GROUP), Route: ORAL (GAVAGE), Dose: 0, 0.03, 0.3, 3 MG/KG/D IN 1% CARBOXYMETHYLCELLULOSE FOR 95 WKS, Dose: 0, 0.03, 0.3, 3 MG/KG/D IN 1% CARBOXYMETHYLCELLULOSE FOR 95 WKS inactive; negative | Species: RAT, Strain/Sex: STRAIN-CD/FEMALE, Route: GAVAGE, Dose: 0, 0.03, 0.3, 3 MG/KG/D FOR 95 WK (STUDY DURATION: 114 WK), Dose: 0, 0.03, 0.3, 3 MG/KG/D FOR 95 WK (STUDY DURATION: 114 WK) inactive; negative | Species: RAT, Strain/Sex: STRAIN-CD/FEMALE, Route: GAVAGE, Dose: 0, 6, 9, 18-24 MG/KG/D FOR 104 WK (STUDY DURATION: 104 WK), Dose: 0, 6, 9, 18-24 MG/KG/D FOR 104 WK (STUDY DURATION: 104 WK) inactive; negative | Species: RAT, Strain/Sex: STRAIN-CD/MALE, Route: GAVAGE, Dose: 0, 0.03, 0.3, 3 MG/KG/D FOR 95 WK (STUDY DURATION: 114 WK), Dose: 0, 0.03, 0.3, 3 MG/KG/D FOR 95 WK (STUDY DURATION: 114 WK) inactive; negative | Species: RAT, Strain/Sex: STRAIN-CD/MALE, Route: GAVAGE, Dose: 0, 6, 9, 18-24 MG/KG/D FOR 104 WK (STUDY DURATION: 104 WK), Dose: 0, 6, 9, 18-24 MG/KG/D FOR 104 WK (STUDY DURATION: 104 WK) inactive; negative
active: Species: MOUSE, Strain/Sex: CD-1/FEMALE (70/GROUP), Route: ORAL (GAVAGE), Dose: 0, 0.3, 15, 30 MG/KG/D IN 1% CARBOXYMETHYLCELLULOSE FOR 85 WK, Dose: 0, 0.3, 15, 30 MG/KG/D IN 1% CARBOXYMETHYLCELLULOSE FOR 85 WK, Tumor Site: Type of Lesion: FORESTOMACH: SQUAMOUS PAPILLOMAS active; positive | Species: MOUSE, Strain/Sex: CD-1/FEMALE, Route: GAVAGE, Dose: 0, 0.3, 15, 30 MG/KG/D FOR 52 OR 85 WK (STUDY DURATION: 86 WK), Dose: 0, 0.3, 15, 30 MG/KG/D FOR 52 OR 85 WK (STUDY DURATION: 86 WK), Tumor Site: Type of Lesion: FORESTOMACH: PAPILLOMA active; positive | Species: RAT, Strain/Sex: CD (SPRAGUE-DAWLEY)/MALE (75/GROUP), Route: ORAL (GAVAGE), Dose: 0, 6, 9, 18-24 MG/KG/D IN 1% CARBOXYMETHYLCELLULOSE FOR 104 WKS, Dose: 0, 6, 9, 18-24 MG/KG/D IN 1% CARBOXYMETHYLCELLULOSE FOR 104 WKS, Tumor Site: Type of Lesion: THYROID: FOLLICULAR ADENOMA (11/75) active; positive

COc1ccc(-c2ccccc2)cc1NNC(=O)OC(C)C
inactive: Species: Mouse, Strain/Sex: B6C3F1/Female (50/group), Route: Oral, Dose: 0, 10, 100, 175 ppm in diet for 78 wks, Dose: 0, 10, 100, 175 ppm in diet for 78 wks inactive; negative; purity 92.5% | Species: Rat, Strain/Sex: Sprague-Dawley/Female (60/group), Route: Oral, Dose: 0, 20, 80, 160 ppm in diet for 104 wks, Dose: 0, 20, 80, 160 ppm in diet for 104 wks inactive; negative; purity 92.5% | Species: Rat, Strain/Sex: Sprague-Dawley/Male (60/group), Route: Oral, Dose: 0, 20, 80, 200 ppm in diet for 104 wks, Dose: 0, 20, 80, 200 ppm in diet for 104 wks inactive; negative; purity 92.5%

CCCCN(CCCC)N=O
active: Species: GUINEA PIG, Route: ORAL, Tumor Site: Type of Lesion: LIVER active; positive | Species: HAMSTER, Route: GAVAGE, Tumor Site: Type of Lesion: LUNG, RESPIRATORY TRACT, TRACHEA, FORESTOMACH, Tumor Site: Type of Lesion: LUNG, RESPIRATORY TRACT, TRACHEA, FORESTOMACH active; positive | Species: HAMSTER, Route: INTRAPERITONEAL, Tumor Site: Type of Lesion: RESPIRATORY TRACT active; positive | Species: HAMSTER, Route: SUBCUTANEOUS, Tumor Site: Type of Lesion: TRACHEA, URINARY BLADDER, FORESTOMACH, RESPIRATORY TRACT, Tumor Site: Type of Lesion: TRACHEA, URINARY BLADDER, FORESTOMACH, RESPIRATORY TRACT active; positive | Species: MOUSE, Route: INTRAVENOUS, Tumor Site: Type of Lesion: HEMATOPOIETIC SYSTEM (LEUKEMIA) active; positive | Species: MOUSE, Route: ORAL, Tumor Site: Type of Lesion: ESOPHAGUS, FORESTOMACH, LIVER, URINARY BLADDER, Tumor Site: Type of Lesion: ESOPHAGUS, FORESTOMACH, LIVER, URINARY BLADDER active; positive | Species: MOUSE, Route: SUBCUTANEOUS, Tumor Site: Type of Lesion: URINARY BLADDER, LUNG active; positive | Species: RABBIT, Route: SUBCUTANEOUS, Tumor Site: Type of Lesion: URINARY BLADDER active; positive | Species: RAT, Route: ORAL, Tumor Site: Type of Lesion: ESOPHAGUS, LIVER, URINARY BLADDER, Tumor Site: Type of Lesion: ESOPHAGUS, LIVER, URINARY BLADDER active; positive | Species: RAT, Route: SUBCUTANEOUS, Tumor Site: Type of Lesion: URINARY BLADDER, LUNG active; positive

— PubChem BioAssay AID1259411 (Chemical Carcinogenesis Research Information System (CCRIS), 2018)
